Test results reported in patent US10407734B2, “Compositions and methods of using transposons” (Yale University, priority 2013, dated 2019).
“Also recorded” adds a separate entry of the source.

Experiments:
AML-RAS cells [1] = assay: AlamarBlue cell viability assay on AML-RAS cells; type: cell-based, human; conditions: 3 days after treatment; 20 mM LiCl, 5 uM Kenpaullone or 2 uM BIO
Protocol: (§1) Cell Viability Assay. To determine the effects of various drug treatments on oncogenic RAS mutant cells, an AlamarBlue assay (Invitrogen) was performed. 2500 cells were seeded in triplicate in 96-well plates one day prior to drug treatments. For TRI-102 and AML-RAS cells, fluorescence was measured at 72 hrs after drug addition. For other oncogenic RAS cells, fluorescence was measured 120 hrs after drug addition.
as §1, with “cells,” for “cells, an”

[2] = test system: patient-derived cancer cells with oncogenic RAS mutations (lung, colon, pancreatic, melanocytic); assay: AlamarBlue cell viability assay on panel of 17 patient-derived oncogenic RAS cancer cells; type: cell-based, human; conditions: panel of 17 lines; viable cells vs vehicle after 5 days
Protocol: as §1
as §1, with “cells,” for “cells, an”

A549 lung cancer cells = assay: AlamarBlue cell viability assay on A549 cells; type: cell-based, human; conditions: viable cells vs vehicle after 5 days; SMARCA4 frame shift deletion
Protocol: as §1
as §1, with “cells,” for “cells, an”

AML-RAS cells [3] = assay: Soft agar assay on AML-RAS cells; type: cell-based, human; conditions: 20 mM LiCl; colonies counted after 3-4 weeks
Protocol: (§2) Softagar Assay. Soft agar assays were performed in triplicate in 6-well plates. For each well, a bottom layer containing 1% agar in growth medium was added. Then 10,000 cells were plated in 0.5% agar in growth medium. Growth medium was added to each well and changed every 3 days. The colonies were counted after 3-4 weeks.

AML-RAS xenografts = assay: AML-RAS cell xenograft model; type: in vivo, nude mice; conditions: LiCl 340 mg/kg intraperitoneal every two days, 28 days
Protocol: (§3) Xenograft. 10^6 AML-RAS cells were resuspended in PBS and inoculated subcutaneously into both flanks of 6-week old female nude mice (Charles River Laboratory). Seven days after transplantation, animals were treated with intraperitoneal injections of LiCl (340 mg/kg body weight), or an equal volume of vehicle (PBS) every two days. Tumor volume (mm3) and body weight (g) were measured every 2 days. The tumor volume was estimated by using caliper measurements based on formula W^2×L/2 (L is the length of the tumor, W is the width of the tumor). All experiments were approved by and conducted in compliance with the Yale Animal Resources Center and the Institutional Animal Care and Use Committee under protocol number 2008-10230.
as §3, with “estimated” for “estimated by”, “All experiments were approved by and conducted in compliance with the Yale Animal Resources Center and the Institutional Animal Care and Use Committee under protocol number 2008-10230.” left out

H1792 cells = assay: Soft agar assay on H1792 cells; type: cell-based, human; conditions: 20 mM LiCl
Protocol: as §2

A549 cells = assay: Soft agar assay on A549 cells; type: cell-based, human; conditions: 20 mM LiCl
Protocol: as §2

| Structure (SMILES) | growth of the AML-RAS cells (viable cells) (AML-RAS cells [1]) | growth of patient-derived cancer cells harboring oncogenic KRAS, NRAS or HRAS mutations [2] | growth of A549 lung cancer cells (A549 lung cancer cells) | anchorage-independent growth of the AML-RAS cells in soft agar (AML-RAS cells [3]) | tumor growth in AML-RAS xenografts (AML-RAS xenografts; nude mice) | health of the recipient mice (body weight) (AML-RAS xenografts; tumor-suppressing dose) | anchorage-independent growth of the H1792 cells in soft agar (H1792 cells) | anchorage-independent growth of the A549 cells in soft agar (A549 cells) |
| --- | --- | --- | --- | --- | --- | --- | --- | --- |
| O=C1Cc2c([nH]c3ccc(Br)cc23)-c2ccccc2N1 [Kenpaullone] | specifically inhibited the growth | suppresses the growth | not significantly suppressed | – | – | – | – | – |
| [Cl-].[Li+] [LiCl, lithium chloride] | specifically impaired the growth | suppresses the growth | not significantly suppressed | prevented; also recorded: dramatically suppressed | dramatically suppressed | not affected | completely inhibited; also recorded: dramatically inhibited | failed to suppress |
| O=C1Nc2cc(Br)ccc2/C1=C1/Nc2ccccc2/C1=N\O [BIO, 6-bromoindirubin-30-oxime] | specifically inhibited the growth | suppresses the growth | not significantly suppressed | – | – | – | – | – |
